Experimental data as given in patent publication US6100237A, “Use of des-Aspartate-angiotensin I as an agent for the treatment and prevention of neointima formation, restenosis, and arteriosclerosis” (National University of Singapore, priority 1997, dated 2000).
No end group written: not given here.

Test system: spontaneously hypertensive rat (SHR)
Assay: Chronic development of arteriosclerosis (abdominal aorta morphometry, tail cuff blood pressure), chronic oral administration, SHR
Assay type: in vivo, spontaneously hypertensive rats (SHR)
Conditions: 0.9 mg/kg/day oral; weight taken at 12, 27 and 47 weeks old (data not shown)
Procedure: Five weeks old WKY and SHR were housed four to a cage. Four SHR and four WKY were orally administered 0.9 mg/kg/day of des-Aspartate-angiotensin I in 0.5 ml of saline daily for 47 weeks. Four SHR and another four WKY served as control animals and were administered 0.5 ml saline solution daily for 47 weeks. The weight of the animals were determined weekly till 12 weeks old, fortnightly till 27 weeks old and monthly till 47 weeks old. The dose of des-Aspartate-angiotensin I was adjusted to match the increase in weight as the animals grew. The dose of 0.9 mg/kg/day was calculated based on the maximum effective oral anti-cardiac hypertrophic dose (250 nmole per rat of average weight of 325 g) in the previous patent.
The blood pressure of the animals was determined by the tail cuff method on the 46th week of treatment. On the 47th week, animals were anaesthetized with chloral hydrate and a 3-cm section (measured from the left renal artery) of the abdominal aorta was removed and fixed in 4% paraformaldehyde and 1% glutaraldehyde. The aorta was processed for paraffin embedment. 10-μ thick sections were prepared and stained with toluidine blue. Fifty such sections, cut from the distal end of the artery, were used for quantitation. The area of the medial smooth muscle cells was quantitated morphometrically as described above. The area was converted to volume by multiplying by 10μ.

Sequence: RVYIHPFHL [des-Aspartate-angiotensin I]
- animal weight: no significant effect
